From PubChem BioAssay AID248 (DTP/NCI, 2004)
Several values for one entry are separate records, joined by “and”; a condition that tells them apart may be missing. Equal values may be shown once. Inconclusive results and toxic doses are left out.

Test system: L1210 leukemia ip in BDF1 mice, survival T/C
Test: NCI In Vivo Anticancer Drug Screen. Data for tumor model L1210 Leukemia (intraperitoneal) in B6D2F1 (BDF1) mice
Settings: endpoint: mean survival time, higher = longer survival
In short: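 Each compound was tested against a transplantable tumor grown in mice. The endpoint was survival, with treated animals benchmarked against vehicle controls as a simple ratio.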

[1] = dose: 100.0 mg/kg/injection, schedule: Q01DX001 (ip), vehicle: saline
[2] = dose: 200.0 mg/kg/injection, schedule: Q01DX001 (ip), vehicle: saline
[3] = dose: 100.0 mg/kg/injection, schedule: Q01DX009 (ip), vehicle: Klucel (hydroxypropylcellulose) (HPC)
[4] = dose: 200.0 mg/kg/injection, schedule: Q01DX009 (ip), vehicle: Klucel (hydroxypropylcellulose) (HPC)
[5] = dose: 50.0 mg/kg/injection, schedule: Q01DX009 (ip), vehicle: Klucel (hydroxypropylcellulose) (HPC)
[6] = dose: 100.0 mg/kg/injection, schedule: Q01DX009 (ip), vehicle: saline with Tween-80
[7] = dose: 200.0 mg/kg/injection, schedule: Q01DX009 (ip), vehicle: saline with Tween-80
[8] = dose: 400.0 mg/kg/injection, schedule: Q01DX009 (ip), vehicle: saline with Tween-80

CCCCCCCNC(=O)CI
T/C [1]: 103 % of control
T/C [2]: 111 % of control

CN(C)C(=S)S/C=C\C(=O)O
T/C (dose: 25.0 mg/kg/injection, schedule: Q04DX002 (ip), vehicle: Klucel (hydroxypropylcellulose) (HPC)): 90 % of control
T/C (dose: 50.0 mg/kg/injection, schedule: Q04DX002 (ip), vehicle: Klucel (hydroxypropylcellulose) (HPC)): 90 % of control
T/C [3]: 112 % of control
T/C (dose: 100.0 mg/kg/injection, schedule: Q04DX002 (ip), vehicle: Klucel (hydroxypropylcellulose) (HPC)): 94 % of control
T/C [4]: 89 % of control
T/C (dose: 200.0 mg/kg/injection, schedule: Q04DX002 (ip), vehicle: Klucel (hydroxypropylcellulose) (HPC)): 93 % of control and 97 % of control
T/C (dose: 400.0 mg/kg/injection, schedule: Q01DX009 (ip), vehicle: Klucel (hydroxypropylcellulose) (HPC)): 99 % of control
T/C (dose: 400.0 mg/kg/injection, schedule: Q04DX002 (ip), vehicle: Klucel (hydroxypropylcellulose) (HPC)): 109 % of control

COc1ccc([PH+](c2ccc(OC)cc2)c2ccc(OC)cc2)cc1.COc1ccc([PH+](c2ccc(OC)cc2)c2ccc(OC)cc2)cc1.[Cl][Hg][Cl]
T/C [5]: 108 % of control
T/C [3]: 101 % of control
T/C [4]: 93 % of control

CN=C(NC)c1ccc(NC(=O)c2cc(OC)cc(C(=O)Nc3ccc(C(=NC)NC)cc3)c2)cc1
T/C (dose: 3.75 mg/kg/injection, schedule: Q01DX Z (ip), vehicle: saline): 100 % of control
T/C (dose: 7.5 mg/kg/injection, schedule: Q01DX Z (ip), vehicle: saline): 98 % of control
T/C (dose: 15.0 mg/kg/injection, schedule: Q01DX Z (ip), vehicle: saline): 98 % of control

CCCCCP(=O)(CCCC)CCCCC
T/C [5]: 89 % of control
T/C [3]: 89 % of control

O=C(Nc1ccc(C2=NCCN2)cc1)c1cc(C(=O)Nc2ccc(C3=NCCN3)cc2)ncn1
T/C (dose: 0.47 mg/kg/injection, schedule: Q01DX015 (ip), vehicle: methylcellulose (MC)): 96 % of control
T/C (dose: 0.93 mg/kg/injection, schedule: Q01DX015 (ip), vehicle: methylcellulose (MC)): 108 % of control
T/C (dose: 0.93 mg/kg/injection, schedule: Q01DX Z (ip), vehicle: carboxymethylcellulose (CMC)): 94 % of control
T/C (dose: 1.87 mg/kg/injection, schedule: Q01DX015 (ip), vehicle: methylcellulose (MC)): 100 % of control and 101 % of control
T/C (dose: 1.87 mg/kg/injection, schedule: Q01DX Z (ip), vehicle: carboxymethylcellulose (CMC)): 120 % of control
T/C (dose: 3.75 mg/kg/injection, schedule: Q01DX015 (ip), vehicle: methylcellulose (MC)): 102 % of control and 116 % of control
T/C (dose: 6.25 mg/kg/injection, schedule: Q01DX001 (ip), vehicle: methylcellulose (MC)): 112 % of control
T/C (dose: 7.5 mg/kg/injection, schedule: Q01DX015 (ip), vehicle: methylcellulose (MC)): 116 % of control and 118 % of control
T/C (dose: 12.5 mg/kg/injection, schedule: Q01DX001 (ip), vehicle: methylcellulose (MC)): 108 % of control
T/C (dose: 15.0 mg/kg/injection, schedule: Q01DX015 (ip), vehicle: other): 153 % of control
T/C (dose: 15.0 mg/kg/injection, schedule: Q01DX Z (ip), vehicle: carboxymethylcellulose (CMC)): 303 % of control
T/C (dose: 25.0 mg/kg/injection, schedule: Q01DX001 (ip), vehicle: methylcellulose (MC)): 104 % of control
T/C (dose: 30.0 mg/kg/injection, schedule: Q01DX015 (ip), vehicle: methylcellulose (MC)): 93 % of control
T/C (dose: 30.0 mg/kg/injection, schedule: Q01DX015 (ip), vehicle: other): 241 % of control
T/C (dose: 30.0 mg/kg/injection, schedule: Q01DX Z (ip), vehicle: carboxymethylcellulose (CMC)): 224 % of control
T/C (dose: 36.0 mg/kg/injection, schedule: Q01DX001 (ip), vehicle: carboxymethylcellulose (CMC)): 118 % of control
T/C (dose: 36.0 mg/kg/injection, schedule: Q01DX001 (ip), vehicle: other): 112 % of control
T/C (dose: 50.0 mg/kg/injection, schedule: Q01DX001 (ip), vehicle: methylcellulose (MC)): 122 % of control
T/C (dose: 53.0 mg/kg/injection, schedule: Q01DX001 (ip), vehicle: carboxymethylcellulose (CMC)): 118 % of control
T/C (dose: 53.0 mg/kg/injection, schedule: Q01DX001 (ip), vehicle: other): 121 % of control
T/C (dose: 60.0 mg/kg/injection, schedule: Q01DX015 (ip), vehicle: other): 102 % of control
T/C (dose: 60.0 mg/kg/injection, schedule: Q01DX Z (ip), vehicle: carboxymethylcellulose (CMC)): 154 % of control
T/C (dose: 79.0 mg/kg/injection, schedule: Q01DX001 (ip), vehicle: carboxymethylcellulose (CMC)): 124 % of control
T/C (dose: 120.0 mg/kg/injection, schedule: Q01DX Z (ip), vehicle: carboxymethylcellulose (CMC)): 121 % of control
T/C (dose: 180.0 mg/kg/injection, schedule: Q01DX001 (ip), vehicle: carboxymethylcellulose (CMC)): 157 % of control
T/C (dose: 180.0 mg/kg/injection, schedule: Q01DX001 (ip), vehicle: other): 162 % of control
T/C (dose: 270.0 mg/kg/injection, schedule: Q01DX001 (ip), vehicle: carboxymethylcellulose (CMC)): 169 % of control
T/C (dose: 405.0 mg/kg/injection, schedule: Q01DX001 (ip), vehicle: carboxymethylcellulose (CMC)): 193 % of control

NC(=O)c1ccccc1OC(=O)Nc1cc([N+](=O)[O-])ccc1F
T/C (dose: 25.0 mg/kg/injection, schedule: Q01DX009 (ip), vehicle: Klucel (hydroxypropylcellulose) (HPC)): 104 % of control
T/C [5]: 107 % of control
T/C [3]: 94 % of control and 92 % of control

c1ccc(Nc2ccc3ccccc3c2)cc1
T/C [6]: 97 % of control
T/C (dose: 100.0 mg/kg/injection, schedule: Q04DX003 (ip), vehicle: saline with Tween-80): 92 % of control
T/C [7]: 89 % of control
T/C (dose: 200.0 mg/kg/injection, schedule: Q04DX003 (ip), vehicle: saline with Tween-80): 98 % of control
T/C [8]: 92 % of control
T/C (dose: 400.0 mg/kg/injection, schedule: Q04DX003 (ip), vehicle: saline with Tween-80): 98 % of control

COc1ccc(OC(=O)Nc2ccccc2C(F)(F)F)cc1
T/C [6]: 98 % of control
T/C [7]: 107 % of control
T/C [8]: 102 % of control

NC(=O)Cn1cnc2c(=S)nc[nH]c21
T/C (dose: 6.25 mg/kg/injection, schedule: Q01DX009 (ip), vehicle: saline with Tween-80): 109 % of control
T/C (dose: 12.5 mg/kg/injection, schedule: Q01DX009 (ip), vehicle: saline with Tween-80): 104 % of control
T/C (dose: 12.5 mg/kg/injection, schedule: Q04DX003 (ip), vehicle: saline with Tween-80): 104 % of control
T/C (dose: 25.0 mg/kg/injection, schedule: Q01DX009 (ip), vehicle: saline with Tween-80): 101 % of control
T/C (dose: 25.0 mg/kg/injection, schedule: Q04DX003 (ip), vehicle: saline with Tween-80): 102 % of control

O=NN(Cc1ccccc1)C(c1ccccc1)S(=O)(=O)O (stereo unspecified)
T/C (dose: 75.0 mg/kg/injection, schedule: Q01DX009 (ip), vehicle: saline): 87 % of control
T/C [1]: 112 % of control
T/C (dose: 150.0 mg/kg/injection, schedule: Q01DX009 (ip), vehicle: saline): 87 % of control
T/C [2]: 100 % of control
T/C (dose: 300.0 mg/kg/injection, schedule: Q01DX009 (ip), vehicle: saline): 97 % of control
T/C (dose: 400.0 mg/kg/injection, schedule: Q01DX001 (ip), vehicle: saline): 93 % of control

c1cc[c]([Sn]([S]c2nc3ccccc3s2)([c]2ccccc2)[c]2ccccc2)cc1
T/C (dose: 5.0 mg/kg/injection, schedule: Q04DX002 (ip), vehicle: saline with Tween-80): 104 % of control
T/C (dose: 10.0 mg/kg/injection, schedule: Q04DX002 (ip), vehicle: saline with Tween-80): 97 % of control
T/C (dose: 20.0 mg/kg/injection, schedule: Q04DX002 (ip), vehicle: saline with Tween-80): 97 % of control

CCCCCCOP(=O)(N1CC1C)N1CC1C (stereo unspecified)
T/C (dose: 12.0 mg/kg/injection, schedule: Q01DX Z (ip), vehicle: saline): 102 % of control
T/C (dose: 25.0 mg/kg/injection, schedule: Q01DX Z (ip), vehicle: saline): 103 % of control
T/C (dose: 50.0 mg/kg/injection, schedule: Q01DX Z (ip), vehicle: saline): 102 % of control and 111 % of control
T/C (dose: 100.0 mg/kg/injection, schedule: Q01DX Z (ip), vehicle: saline): 109 % of control
T/C (dose: 200.0 mg/kg/injection, schedule: Q01DX Z (ip), vehicle: saline): 107 % of control
T/C (dose: 400.0 mg/kg/injection, schedule: Q01DX Z (ip), vehicle: saline): 106 % of control

COc1ccc(OC)c(CCc2cc(OC)ccc2OC)c1
T/C (dose: 12.5 mg/kg/injection, schedule: Q01DX009 (ip), vehicle: other): 93 % of control
T/C (dose: 25.0 mg/kg/injection, schedule: Q01DX009 (ip), vehicle: other): 96 % of control
T/C (dose: 50.0 mg/kg/injection, schedule: Q01DX009 (ip), vehicle: other): 98 % of control
